Assay results from ChEMBL document CHEMBL5356997, “Maydistacins A-G, Terpestacin-type Sesterterpenoids with Anti-inflammatory Activity from the Phytopathogenic Fungus Bipolaris maydis” (J Nat Prod, 2024).

How the values were obtained:
[1] = Cytotoxicity against mouse RAW264.7 cells assessed as cell survival at 50 uM by MTT assay relative to control; type: toxicity, cell-based; conditions: read-out: Activity
RAW264.7 [2] = experiment: Antiinflammatory activity against LPS-stimulated mouse RAW264.7 cells assessed as inhibition of NO production preincubated with compound for 2 hrs followed by LPS stimulation and measured after 12 hrs by Griess reagent based microplate reader analysis; type: functional, cell-based
RAW264.7 [3] = experiment: Antiinflammatory activity against LPS-stimulated mouse RAW264.7 cells assessed as inhibition of NO production at 50 uM preincubated with compound for 2 hrs followed by LPS stimulation and measured after 12 hrs by Griess reagent based microplate reader analysis relative to control; type: functional; conditions: time 14 hrs

| IC50 (RAW264.7 [2]) [µM] | Structure (SMILES) | viability at 50 µM [1] [%] | inhibition at 50 µM (RAW264.7 [3]) [%] |
| --- | --- | --- | --- |
| 19 | C/C1=C\C[C@]2(C)C(=O)C(O)=C([C@H](C)CO)[C@H]2C/C=C(\C)C(=O)CC/C(C)=C/CC1 | > 90 | – |
| – | C/C1=C\C[C@]2(C)C(=O)C(O)=C([C@H](C)CO)[C@H]2C[C@H]2O[C@]2(C)[C@@H](O)CC/C(C)=C/CC1 | > 90 | < 40 |
| – | CC(=O)O[C@H]1CC/C(C)=C/CC/C(C)=C/C[C@]2(C)C(=O)C(O)=C([C@H](C)CO)[C@H]2C/C=C/1C | > 90 | < 40 |
| – | C/C1=C\C[C@]2(C)C(=O)C(O)=C([C@H](C)CO)[C@H]2C/C=C(\C)[C@@H]2CC[C@](C)(/C=C/C1)O2 | > 90 | < 40 |
| – | CC(=O)OC[C@@H](C)C1=C(O)C(=O)[C@@]2(C)C/C=C(\C)C/C=C/[C@](C)(O)CC[C@@H](O)/C(C)=C/C[C@H]12 | > 90 | < 40 |
| – | CC(=O)OC[C@@H](C)C1=C(O)C(=O)[C@@]2(C)C/C=C(\C)CC/C=C(\C)CC[C@H](O)[C@@]3(C)O[C@@H]3C[C@H]12 | > 90 | < 40 |
| – | CC(=O)OC[C@@H](C)C1=C(O)C(=O)[C@@]2(C)C/C=C(\C)CC[C@@H]3O[C@@]3(C)CC[C@H](O)/C(C)=C/C[C@H]12 | > 90 | < 40 |
| 6.7 | C[C@@H]1C[C@H]2[C@@H]3CCC4=CC(=O)C=C[C@]4(C)[C@@]3(F)[C@@H](O)C[C@]2(C)[C@@]1(O)C(=O)CO [DEXAMETHASONE] | – | – |
| – | CC(=O)OC[C@@H](C)C1=C(O)C(=O)[C@@]2(C)C/C=C(\C)CC/C=C(\C)CC[C@H](O)/C(C)=C/C[C@H]12 [FUSAPROLIFERIN] | > 90 | < 40 |
| – | C/C1=C\C[C@]2(C)C(=O)C(O)=C([C@H](C)CO)[C@H]2C/C=C(\C)[C@@H](O)CC/C(C)=C/CC1 [TERPESTACIN] | > 90 | < 40 |
